Reference: patent US10517889B2, “Modulators of SMAD7 expression” (Ionis Pharmaceuticals, Inc., priority 2017, dated 2019)
Strand notation (5' to 3'): a small letter for the sugar, then the base; units joined by * are phosphorothioate-linked, units joined directly phosphodiester-linked; [ ] holds rarer units or linkages, { } end groups; capitals alone tell only the bases. k = constrained ethyl (cEt); [5mC] = 5-methylcytosine; d = 2'-deoxy (DNA)

Experiments:
human SMAD7 mRNA [1] = test: Antisense inhibition of human SMAD7 mRNA expression in Hep3B cells by 3-10-3 cEt gapmers, 10,000 nM, electroporation (Example 2); assay type: cell-based; conditions: approximately 24 hours
Outline: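 Hep3B, 20,000 cells/well; electroporation, 10,000 nM ASO; ~24 h. Readout: SMAD7 mRNA by qRT-PCR (RTS5062), RIBOGREEN-normalised; % inhibition vs untreated.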

human SMAD7 mRNA [2] = test: Dose-dependent inhibition of human SMAD7 mRNA expression in Hep3B cells (Example 3, Study 1 and 2); assay type: cell-based; conditions: electroporation; for % inhibition of SMAD7 mRNA expression: approximately 16 hours; for IC50: Study 2 (740-20000 nM)
Outline: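 Hep3B cells, 20,000 per well, electroporated with antisense oligonucleotide at 0.31, 1.25, 5.00 or 20.00 μM (first series) or 0.74, 2.22, 6.67 or 20.00 μM (second series). After ~16 h, SMAD7 mRNA measured by RT-qPCR (RTS5062), normalised to RIBOGREEN total RNA. Percent inhibition vs untreated cells; IC50 derived.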

[3] = Hep3B cells, electroporation with 10,000 nM antisense oligonucleotide, SMAD7 mRNA by RT-PCR (RTS5062), relative to untreated control cells
[4] = 740 nM, Study 2, relative to untreated control cells
[5] = SMAD7 mRNA, Hep3B cells, 10,000 nM antisense oligonucleotide, electroporation, primer probe set RTS5062, relative to untreated control cells
[6] = Hep3B cells, electroporation with 10,000 nM antisense oligonucleotide, primer probe set RTS5062, relative to untreated control cells
[7] = SMAD7 mRNA, Hep3B cells, electroporation with 10,000 nM antisense oligonucleotide, primer probe set RTS5062, relative to untreated control cells

| Substance | % Inhibition (human SMAD7 mRNA [1]; [3]) [%] | % inhibition of SMAD7 mRNA expression (human SMAD7 mRNA [2]; [4]) [%] | % inhibition of SMAD7 mRNA expression (human SMAD7 mRNA [2]; 2220 nM, Study 2) [%] | % inhibition of SMAD7 mRNA expression (human SMAD7 mRNA [2]; 6670.0 nM, Study 2) [%] | % inhibition of SMAD7 mRNA expression (human SMAD7 mRNA [2]; 20000.0 nM, Study 2) [%] | IC50 (human SMAD7 mRNA [2]) [µM] | % Inhibition (human SMAD7 mRNA [1]; [5]) [%] | % inhibition of SMAD7 mRNA expression (human SMAD7 mRNA [1]; [6]) [%] | % Inhibition (human SMAD7 mRNA [1]; [7]) [%] | % Inhibition (human SMAD7 mRNA [1]; Hep3B cells, electroporation with 10,000 nM antisense oligonucleotide, RTS5062, percent inhibition of SMAD7 mRNA relative to untreated control cells) [%] |
| --- | --- | --- | --- | --- | --- | --- | --- | --- | --- | --- |
| 830142 (antisense kT*kG*kT*dG*d[5mC]*dA*d[5mC]*d[5mC]*dA*dG*dG*dT*dG*kA*kG*k[5mC]) [compound 830142] | 60 | 13 | 37 | 32 | 49 | > 20 |  |  |  |  |
| 799471 (antisense k[5mC]*kA*k[5mC]*dA*dG*dA*dA*dA*dA*dG*d[5mC]*dT*d[5mC]*k[5mC]*kG*k[5mC]) [compound 799471] | 71 | 0 | 9 | 14 | 46 | 5 |  |  |  |  |
| 790616 (k[5mC]*kT*kA*dA*dA*dT*dT*dT*d[5mC]*d[5mC]*dA*dA*dT*kG*kA*kG; antisense) [compound 790616] |  | 0 | 8 | 26 | 65 | 13 | 66 |  |  |  |
| 830157 (antisense kG*kA*kA*d[5mC]*dT*dG*dT*dG*d[5mC]*d[5mC]*dT*d[5mC]*dA*kG*k[5mC]*kA) [compound 830157] | 70 | 24 | 50 | 73 | 81 | 3 |  |  |  |  |
| 830170 (antisense kG*k[5mC]*kT*d[5mC]*dT*dG*dT*dT*dT*dG*dG*dA*d[5mC]*kA*kA*kG) [compound 830170] | 60 | 1 | 39 | 54 | 67 | 6 |  |  |  |  |
| 799067 (antisense kG*kG*kA*dT*dG*dA*dA*dA*dA*dT*dA*dA*dT*kT*kG*kG) [compound 799067] |  | 5 | 55 | 63 | 78 | 9 |  | 74 |  |  |
| 799143 (antisense kT*kG*kG*dG*dT*dT*dA*dT*dG*dA*d[5mC]*dG*dG*kA*k[5mC]*k[5mC]) [compound 799143] |  | 87 | 93 | 95 | 96 | 2 | 61 | 66 |  |  |
| 830010 (antisense kG*kT*k[5mC]*dT*d[5mC]*dA*dA*dA*dT*dG*dG*dG*d[5mC]*kT*kT*k[5mC]) [compound 830010] |  | 0 | 12 | 52 | 72 | 1 |  |  | 68 |  |
| 799709 (antisense kT*k[5mC]*kA*dA*dA*d[5mC]*dT*dT*dG*dT*dG*dG*dT*kA*kA*kA) [compound 799709] |  | 0 | 27 | 36 | 62 | 7 |  |  |  | 60 |
| 790476 (kT*kT*k[5mC]*dT*dT*dG*dA*dG*d[5mC]*dA*d[5mC]*d[5mC]*dG*kA*kG*kT; antisense) [compound 790476] | 67 | 8 | 38 | 63 | 69 | 5 |  |  |  |  |
| 829980 (kT*kT*kG*dA*dT*dA*dT*dT*dT*dA*dG*d[5mC]*dT*kG*kT*k[5mC]; antisense) [compound 829980] |  | 52 | 63 | 79 | 92 | 3 |  |  | 56 |  |
